Holding throughout (experiment): growth of human tumour cells (NCI), 48 h
The subject of assay [1] is A498.
In assay [2] the test system is SK-OV-3.
Assay [3] relates to NCI/ADR-RES.
The test system of assay [4] is K562.
The subject of assay [5] is IGROV-1.
The test system of assay [6] is COLO 205.
The test system of assay [7] is MOLT-4.
Assay [8] relates to OVCAR-8.
In assay [9] the test system is SK-MEL-28.
In assay [10] the test system is Hs-578T.
Assay [11] concerns SK-MEL-5.
Assay [12] has as its system BT-549.
Assay [13] relates to HCC 2998.
Assay [14] concerns LOX IMVI.
For assay [15], the system named is SR.
In assay [16] the test system is SNB-19.
The test system of assay [17] is A549.
Assay [18] has as its system NCI-H522.
For assay [19], the system named is RPMI-8226.

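The compound was tested at five concentrations on cells cultured in 96-well plates, with a 48-hour exposure period. Here, GI50 denotes the concentration required for 50% inhibition of growth.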 Calls of active or inactive are those of the source. Cut-off read from the data, not from the text of the source: active = GI50 up to about 1.1 µM and inactive = higher. Residues, ends and D or L forms follow the SMILES beside them.

As for `CCOC(=O)CCC(NC(=O)c1ccc(CNc2nc3cc(N)cc(N)c3nc2-c2ccccc2)cc1)C(=O)OCC` (centres undefined), the GI50 in assay [1] is > 100 µM (inactive); in assay [2], > 100 µM (inactive); in assay [3], > 100 µM (inactive); in assay [4], 15.3 µM (inactive); in assay [5], > 87.1 µM (inactive); in assay [6] it was 27.5 µM (inactive). Besides, the GI50 in assay [7] was 1.45 µM (inactive); in assay [8], > 100 µM (inactive); in assay [9] it was 28.2 µM (inactive); in assay [10], > 84.5 µM (inactive); in [11], > 83 µM (inactive); in assay [12] it was > 100 µM (inactive). The GI50 is > 100 µM (inactive) in assay [13]; 99.3 µM (inactive) in assay [14]; 3.64 µM (inactive) in assay [15]; > 100 µM (inactive) in assay [16]; > 100 µM (inactive) in assay [17]; 28.4 µM (inactive) in assay [18].
Consider `COc1cc2c3cc1Oc1c(OC)c(OC)cc4c1C(Cc1ccc(O)c(c1)Oc1ccc(cc1)CC3N(C)CC2)CN(C)C4` (centres undefined), for which the GI50 in assay [1] was 16.9 µM (inactive); in assay [2], 23.4 µM (inactive); in assay [3], 19.3 µM (inactive); in [4], 5.22 µM (inactive); in [5] it was 20.5 µM (inactive); in assay [19], 13 µM (inactive). Further, the GI50 in assay [6] is 10 µM (inactive); in assay [7] it was 7.31 µM (inactive); in [8], 15 µM (inactive); in [9] it was 16.8 µM (inactive); in assay [10], 15.5 µM (inactive); in assay [11], 13.5 µM (inactive). In addition, the GI50 was 14.8 µM (inactive) in assay [12]; 3.44 µM (inactive) in assay [13]; 6.14 µM (inactive) in assay [15]; 24.3 µM (inactive) in assay [16]; 22.5 µM (inactive) in [17]; 12.5 µM (inactive) in assay [18].
On to `Cc1noc(NS(=O)(=O)c2ccc(NC(=O)c3ccc4nc5ccccc5c(Nc5ccc(S(=O)(=O)Nc6onc(C)c6C)cc5)c4c3)cc2)c1C`, for which the GI50 in assay [1] was > 100 µM (inactive); in assay [2], > 100 µM (inactive); in assay [3], > 100 µM (inactive); in assay [4] it was 25.5 µM (inactive); in assay [5], > 100 µM (inactive); in assay [19], 36.2 µM (inactive). Further, the GI50 in [6] is > 100 µM (inactive); in assay [7] it was 80.5 µM (inactive); in [8], > 100 µM (inactive); in assay [9], > 100 µM (inactive); in assay [10] it was > 100 µM (inactive); in assay [11], 49.4 µM (inactive). For the same molecule, the GI50 in assay [12] was 24.8 µM (inactive); in assay [13], > 100 µM (inactive); in assay [14], 21 µM (inactive); in assay [15] it was 42 µM (inactive); in assay [16], > 100 µM (inactive); in assay [17] it was > 100 µM (inactive). In addition, the GI50 in assay [18] is 52.1 µM (inactive).
For the molecule `COc1cc(C=O)cc(/C=N/N=C/c2ccccc2O)c1O`, the GI50 in [1] is > 100 µM (inactive); in [2], 12.7 µM (inactive); in [3], 36 µM (inactive); in assay [5], 40.1 µM (inactive); in [19], 16.4 µM (inactive); in [6] it was 30.5 µM (inactive). Further, the GI50 in assay [7] is 0.0182 µM (active); in assay [9] it was 14.7 µM (inactive); in [10], 2.92 µM (inactive); in [11], 29.1 µM (inactive); in [12], 10.2 µM (inactive); in assay [14] it was 21.7 µM (inactive). Moreover, the GI50 was 19.8 µM (inactive) in [15], 32.3 µM (inactive) in assay [16], 79.6 µM (inactive) in [17] and 40.5 µM (inactive) in assay [18].
Regarding `CCOC1OC(COC(=O)C(C)(C)C)C(O)CC1n1cc(C)c(=O)[nH]c1=O` (centres undefined), the GI50 in assay [1], in [3], in [4], in assay [5], in [19] and in assay [6] was > 100 µM (inactive) each time. Also, the GI50 in assay [8], in assay [9], in assay [10], in assay [11], in assay [12] and in [13] was > 100 µM (inactive) in each case. Also, the GI50 in [14], in assay [15], in [16], in assay [17] and in assay [18] was > 100 µM (inactive) each time.
For the molecule `Nc1c2c(nc3ccccc13)-c1ccccc1CCC2`, the GI50 in assay [1] is 8.22 µM (inactive); in assay [2] it was 15.2 µM (inactive); in assay [3] it was 14.2 µM (inactive); in assay [4] it was 6.65 µM (inactive); in assay [5], 14.1 µM (inactive); in [19], 8.67 µM (inactive). Also, the GI50 was 14.1 µM (inactive) in assay [6]; 8.34 µM (inactive) in [7]; 15 µM (inactive) in [8]; 12.7 µM (inactive) in assay [9]; 20.2 µM (inactive) in assay [10]; 7.91 µM (inactive) in assay [11]. Besides, the GI50 in assay [12] was 17.6 µM (inactive); in assay [13] it was 3.08 µM (inactive); in assay [14] it was 12.7 µM (inactive); in assay [15] it was 2.39 µM (inactive); in assay [16], 17.7 µM (inactive); in assay [17] it was 13.8 µM (inactive). Also, the GI50 in assay [18] is 15.6 µM (inactive).
With `CCC(C)C(NC(=O)C1CCCN1)C(=O)NC(C(=O)NCC(=O)NC(CC(N)=O)C(=O)NC(CC(C)C)C(=O)NC(CC(C)C)C(=O)NC(CCCCN)C(N)=O)C(C)C` (centres undefined) (H-PIVGNLLK-NH2; configuration not given here), the GI50 in assay [1], in [2], in [3], in assay [4], in assay [5] and in assay [19] was > 75 µM (inactive) throughout. Further, the GI50 in [6], in [7], in assay [8], in assay [9], in [10] and in assay [11] was > 75 µM (inactive) throughout. Further, the GI50 in assay [12], in assay [14], in [15], in assay [16], in [17] and in assay [18] was > 75 µM (inactive) each time.
Turning to `O=C(Cn1c(C(=O)/C=C/c2ccco2)nc2ccccc21)c1ccc(Cl)cc1`, the GI50 in assay [1] was 17.2 µM (inactive); in assay [2] it was 44.4 µM (inactive); in assay [3] it was 11.8 µM (inactive); in [4], 11.7 µM (inactive); in assay [5] it was 15.1 µM (inactive); in [19], 10.1 µM (inactive). Also, the GI50 is 19.4 µM (inactive) in assay [6]; 26.6 µM (inactive) in [9]; 1.29 µM (inactive) in assay [10]; 19.9 µM (inactive) in [11]; 14.9 µM (inactive) in assay [12]; 17.1 µM (inactive) in assay [13]. The GI50 in [14] was 13.8 µM (inactive); in assay [15], 3.03 µM (inactive); in assay [16], 27.5 µM (inactive); in [17], 26.5 µM (inactive).
`CCCCc1ccc(Nc2nc(Cl)c3c(ncn3COCCOC(C)=O)n2)cc1`: the GI50 in assay [1] was 20.5 µM (inactive); in assay [2], 17.1 µM (inactive); in assay [3], 23.5 µM (inactive); in assay [4], 24.4 µM (inactive); in [5], 19.2 µM (inactive); in [19] it was 29 µM (inactive). Further, the GI50 in assay [6] is 22.3 µM (inactive); in assay [7], 20.4 µM (inactive); in [8], 18.3 µM (inactive); in assay [10] it was 21.5 µM (inactive); in assay [11], 18.7 µM (inactive); in assay [12], 15 µM (inactive). For the same molecule, the GI50 was 19.9 µM (inactive) in [13]; 17.5 µM (inactive) in [14]; 20.7 µM (inactive) in [15]; 20.9 µM (inactive) in assay [16]; 19 µM (inactive) in assay [17]; 17.2 µM (inactive) in assay [18].
As to `N#C[C@H](C(=O)c1ccccc1F)c1nc2ccccc2[nH]1`, the GI50 was 87.9 µM (inactive) in assay [1]; > 100 µM (inactive) in assay [2]; > 100 µM (inactive) in assay [3]; > 100 µM (inactive) in [4]; 60.7 µM (inactive) in assay [5]; > 100 µM (inactive) in assay [19]. Also, the GI50 in assay [6] was > 100 µM (inactive); in [7], > 100 µM (inactive); in [8] it was > 100 µM (inactive); in assay [9] it was > 100 µM (inactive); in assay [10] it was 85.5 µM (inactive); in [12], > 100 µM (inactive). Further, the GI50 was > 100 µM (inactive) in assay [13]; > 100 µM (inactive) in [14]; 58.9 µM (inactive) in assay [15]; > 100 µM (inactive) in assay [16]; > 100 µM (inactive) in assay [17].
With `CCOC(=O)c1nc2ccccc2nc1Nc1ccc(OC)cc1`, the GI50 in assay [1] is 18.6 µM (inactive); in assay [3], 34.8 µM (inactive); in assay [4], > 100 µM (inactive); in assay [5], 50.6 µM (inactive); in [19], > 100 µM (inactive); in assay [6], > 100 µM (inactive). Moreover, the GI50 in assay [7] is > 100 µM (inactive); in assay [8] it was 73.3 µM (inactive); in assay [9] it was 54.7 µM (inactive); in [10], 41.2 µM (inactive); in assay [11] it was 30 µM (inactive); in assay [12], 24 µM (inactive). The GI50 is > 100 µM (inactive) in [13]; > 100 µM (inactive) in assay [14]; > 100 µM (inactive) in assay [15]; 16.5 µM (inactive) in assay [16]; 51.2 µM (inactive) in assay [17]; 23.8 µM (inactive) in assay [18].

For the origin of these results see ChEMBL document CHEMBL1201862, “PubChem BioAssay data set” (2004).
